Experimental data as given in patent publication US20260144796A1, “Compounds and Methods for Improving Health” (Acurx Pharmaceuticals, Inc., priority 2022, published 2026).
Converted amounts (≈) assume the structure as drawn.

Columns and labels:
gut microbiome [1] = experiment: Phase 1 healthy volunteer study, gut microbiome (metagenomics, qPCR); type: in vivo, human; details: for Proportion of isolated Firmicutes, Erysipelotrichaceae: baseline 2%; for Proportion of isolated Firmicutes, Other: baseline 4%; for Proportion of isolated Firmicutes, Lachnospiraceae: baseline 26%; for Proportion of isolated Firmicutes, Ruminococcaceae: baseline 68%
gut microbiome [2] = experiment: Phase 2a CDI clinical trial, gut microbiome (metagenomics); type: in vivo, human; details: CDI patients; for Proportion of isolated Firmicutes, Peptostreptococcaceae: baseline 2%; for Proportion of isolated Firmicutes, Other: baseline 5%; for Proportion of isolated Firmicutes, Ruminococcaceae: baseline 7%; for Proportion of isolated Firmicutes, Streptococcaceae: baseline 13%; for Proportion of isolated Firmicutes, Erysipelotrichaceae: baseline 18%; for Proportion of isolated Firmicutes, Lachnospiraceae: baseline 30%
Experimental: Phase 2a of this trial was an open label cohort of 10 subjects from study centers in the United States. In this cohort, 10 patients with diarrhea caused by mild or moderate C. difficile diagnosed via toxin EIA+ were treated with ibezapolstat 450 mg orally, twice daily for 10 days. All patients were followed for recurrence for 28±2 days. Stool was collected during course of therapy and at follow up. Patient fecal samples were evaluated for C. difficile culture and microbiome changes. […] Favorable microbiome changes included overgrowth of Actinobacteria and Firmicutes phylum species while on therapy. These findings support that microbiome effects may be predictive of beneficial patient outcomes including low rates of recurrence.
Phase 2a of this trial was an open label cohort of 10 subjects from study centers in the United States. In this cohort, 10 patients with diarrhea caused by mild or moderate C. difficile diagnosed via toxin EIA+ were treated with ibezapolstat 450 mg orally, twice daily for 10 days. Stool was collected during the course of therapy and at follow up.
Stool DNA was extracted using a DNAeasy Power Soil Pro kit (Qiagen, catalog number 1288-100) in a QiaCube automated DNA extraction system as previously described. (Garey K W, et al. A randomized, double-blind, placebo-controlled, single and multiple ascending dose Phase 1 study to determine the safety, pharmacokinetics and food and faecal microbiome effects of ibezapolstat administered orally to healthy subjects. J Antimicrob Chemother 2020; 75 (12): 3635-3643). Shotgun metagenomic sequencing was carried out at the University of Houston Sequencing and Gene Editing Core (Houston, TX USA) using the Nextera DNA Flex Library Prep Kit for DNA library preparation and an Illumina NextSeq 500 platform for sequencing. CLC Genomic Workbench version 12 (Qiagen) was used for metagenomic assembly and creation of the abundance table.
16S rRNA sequencing was performed to characterize microbial taxonomy as described in Gonzales-Luna 2021. The V3-V4 region of the 16S rRNA gene was sequenced using an Illumina-based sequencing platform with a minimum of 15,000 reads per sample to assess the gut microbiome community structure. Quality filtered sequence reads with at least 97% similarity were clustered into Operational Taxonomic Units (OTUs) and representative sequences from each OTU were assigned a taxonomic identity at the species level by searching against the NCBI 16S rRNA sequence database (release date Sep. 1, 2018) using NCBI BLAST+ package v2.8.1 2018.
The DNA extracted from fecal samples previously used for 16S rRNA sequencing was shotgun metagenome sequenced using an Illumina-based platform for analysis of microbiome functional genes. The functional gene profiling of the shotgun metagenome was performed using HUMAnN2 v0.11.2 pipeline.35 In the preprocessing step, quality filtering of sequencing reads was performed and followed by screening and removal of contaminant host (human) reads. Trimmomatic v0.38 was used for the filtering and trimming of raw sequence data with the default cut-off settings. The reads were searched against a human genome database in paired-end mode using bowtie2 algorithm and were discarded if they were mapped to the database. To obtain the gene family profiles, these quality-controlled metagenome sequences were first searched against a nucleotide database (ChocoPhlAn) using bowtie2 and then against a protein database (UniRef90) using diamond. All the identified gene families were annotated using UniRef90 and pathways using MetaCyc identifiers.

Coprococcus sp = experiment: MIC determination, stool Firmicute isolates; type: cell-based; details: N=1
Enterococcus pseudoavium = experiment: MIC determination, stool Firmicute isolates; type: cell-based; details: N=1
Flavonifractor plautii = experiment: MIC determination, stool Firmicute isolates; type: cell-based; details: N=1
Longibaculum sp. = experiment: MIC determination, stool Firmicute isolates; type: cell-based; details: N=1
[3] = tested on: flagellar genes fliA, flgB, fliC in C. difficile strain CD 630; experiment: Flagellar gene expression by qRT-PCR
[4] = healthy volunteers, 450 mg twice daily 10 days, day 3
[5] = healthy volunteers, 450 mg twice daily 10 days, day 5
[6] = healthy volunteers, 450 mg twice daily 10 days, day 8
[7] = healthy volunteers, 450 mg twice daily 10 days, day 10
[8] = healthy volunteers, 450 mg twice daily 10 days, day 12
[9] = 450 mg orally twice daily 10 days, day 3
[10] = 450 mg orally twice daily 10 days, day 5
[11] = 450 mg orally twice daily 10 days, day 8
[12] = 450 mg orally twice daily 10 days, day 10
[13] = 450 mg orally twice daily 10 days, day 12

O=c1[nH]c(NCc2ccc(Cl)c(Cl)c2)nc2ncn(CCN3CCOCC3)c12 [Ibezapolstat, 2-((3,4-dichlorobenzyl)amino)-7-(2-morpholinoethyl)-1,7-dihydro-6H-purin-6-one]
amount of C. coccoides (Clostridium cluster XIVa), qPCR (gut microbiome [1]; healthy volunteers, 450 mg twice a day, over 12 days): increased
Proportion of isolated Firmicutes, Streptococcaceae (gut microbiome [1]; [4]): 27%
Proportion of isolated Firmicutes, Veillonellaceae (gut microbiome [1]; [4]): 3%
Proportion of isolated Firmicutes, Erysipelotrichaceae (gut microbiome [1]; [4]): 4%
Proportion of isolated Firmicutes, Other (gut microbiome [1]; [4]): 6%
Proportion of isolated Firmicutes, Lachnospiraceae (gut microbiome [1]; [4]): 23%
Proportion of isolated Firmicutes, Ruminococcaceae (gut microbiome [1]; [4]): 37%
Proportion of isolated Firmicutes, Streptococcaceae (gut microbiome [1]; [5]): 43%
Proportion of isolated Firmicutes, Erysipelotrichaceae (gut microbiome [1]; [5]): 7%
Proportion of isolated Firmicutes, Other (gut microbiome [1]; [5]): 9%
Proportion of isolated Firmicutes, Lachnospiraceae (gut microbiome [1]; [5]): 21%
Proportion of isolated Firmicutes, Ruminococcaceae (gut microbiome [1]; [5]): 20%
Proportion of isolated Firmicutes, Lactobacilloae (gut microbiome [1]; [6]): 12%
Proportion of isolated Firmicutes, Streptococcaceae (gut microbiome [1]; [6]): 49%
Proportion of isolated Firmicutes, Erysipelotrichaceae (gut microbiome [1]; [6]): 7%
Proportion of isolated Firmicutes, Other (gut microbiome [1]; [6]): 9%
Proportion of isolated Firmicutes, Lachnospiraceae (gut microbiome [1]; [6]): 16%
Proportion of isolated Firmicutes, Ruminococcaceae (gut microbiome [1]; [6]): 7%
Proportion of isolated Firmicutes, Lactobacilloae (gut microbiome [1]; [7]): 5%
Proportion of isolated Firmicutes, Streptococcaceae (gut microbiome [1]; [7]): 41%
Proportion of isolated Firmicutes, Erysipelotrichaceae (gut microbiome [1]; [7]): 18%
Proportion of isolated Firmicutes, Other (gut microbiome [1]; [7]): 9%
Proportion of isolated Firmicutes, Lachnospiraceae (gut microbiome [1]; [7]): 24%
Proportion of isolated Firmicutes, Ruminococcaceae (gut microbiome [1]; [7]): 3%
Proportion of isolated Firmicutes, Lactobacilloae (gut microbiome [1]; [8]): 6%
Proportion of isolated Firmicutes, Streptococcaceae (gut microbiome [1]; [8]): 14%
Proportion of isolated Firmicutes, Erysipelotrichaceae (gut microbiome [1]; [8]): 25%
Proportion of isolated Firmicutes, Other (gut microbiome [1]; [8]): 5%
Proportion of isolated Firmicutes, Lachnospiraceae (gut microbiome [1]; [8]): 47%
Proportion of isolated Firmicutes, Ruminococcaceae (gut microbiome [1]; [8]): 4%
Actinobacteria abundance after starting treatment (gut microbiome [1]; healthy volunteers, primarily Bifidobacteriales or Coriobacteriales, persisted for the entire dosing period): increased in abundance
microbiome profile of treated subjects (gut microbiome [1]; phase 1 healthy volunteer study, treatment over 10 days, shotgun metagenomic sequencing): larger proportion of Actinobacteria and Firmicute Phylum
Proportion of isolated Firmicutes, Eubacteriales Family XIII (gut microbiome [2]; [9]): 2%
Proportion of isolated Firmicutes, Peptostreptococcaceae (gut microbiome [2]; [9]): 1%
Proportion of isolated Firmicutes, Other (gut microbiome [2]; [9]): 9%
Proportion of isolated Firmicutes, Ruminococcaceae (gut microbiome [2]; [9]): 25%
Proportion of isolated Firmicutes, Streptococcaceae (gut microbiome [2]; [9]): 3%
Proportion of isolated Firmicutes, Erysipelotrichaceae (gut microbiome [2]; [9]): 24%
Proportion of isolated Firmicutes, Lachnospiraceae (gut microbiome [2]; [9]): 37%
Proportion of isolated Firmicutes, Eubacteriales Family XIII (gut microbiome [2]; [10]): 1%
Proportion of isolated Firmicutes, Other (gut microbiome [2]; [10]): 10%
Proportion of isolated Firmicutes, Ruminococcaceae (gut microbiome [2]; [10]): 38%
Proportion of isolated Firmicutes, Streptococcaceae (gut microbiome [2]; [10]): 1%
Proportion of isolated Firmicutes, Erysipelotrichaceae (gut microbiome [2]; [10]): 10%
Proportion of isolated Firmicutes, Lachnospiraceae (gut microbiome [2]; [10]): 38%
Proportion of isolated Firmicutes, Eubacteriales Family XIII (gut microbiome [2]; [11]): 3%
Proportion of isolated Firmicutes, Peptostreptococcaceae (gut microbiome [2]; [11]): 5%
Proportion of isolated Firmicutes, Other (gut microbiome [2]; [11]): 9%
Proportion of isolated Firmicutes, Ruminococcaceae (gut microbiome [2]; [11]): 30%
Proportion of isolated Firmicutes, Streptococcaceae (gut microbiome [2]; [11]): 4%
Proportion of isolated Firmicutes, Erysipelotrichaceae (gut microbiome [2]; [11]): 9%
Proportion of isolated Firmicutes, Veillonellaceae (gut microbiome [2]; 450 mg orally twice daily 10 days, day 8, baseline 19%): 5%
Proportion of isolated Firmicutes, Lachnospiraceae (gut microbiome [2]; [11]): 33%
Proportion of isolated Firmicutes, Eubacteriales Family XIII (gut microbiome [2]; [12]): 5%
Proportion of isolated Firmicutes, Peptostreptococcaceae (gut microbiome [2]; [12]): 4%
Proportion of isolated Firmicutes, Other (gut microbiome [2]; [12]): 8%
Proportion of isolated Firmicutes, Ruminococcaceae (gut microbiome [2]; [12]): 26%
Proportion of isolated Firmicutes, Streptococcaceae (gut microbiome [2]; [12]): 5%
Proportion of isolated Firmicutes, Erysipelotrichaceae (gut microbiome [2]; [12]): 17%
Proportion of isolated Firmicutes, Lachnospiraceae (gut microbiome [2]; [12]): 35%
Proportion of isolated Firmicutes, Eubacteriales Family XIII (gut microbiome [2]; [13]): 4%
Proportion of isolated Firmicutes, Peptostreptococcaceae (gut microbiome [2]; [13]): 6%
Proportion of isolated Firmicutes, Other (gut microbiome [2]; [13]): 10%
Proportion of isolated Firmicutes, Ruminococcaceae (gut microbiome [2]; [13]): 24%
Proportion of isolated Firmicutes, Streptococcaceae (gut microbiome [2]; [13]): 2%
Proportion of isolated Firmicutes, Erysipelotrichaceae (gut microbiome [2]; [13]): 6%
Proportion of isolated Firmicutes, Lachnospiraceae (gut microbiome [2]; [13]): 44%
Actinobacteria abundance after starting treatment (gut microbiome [2]; primarily Coriobacteriales): increased in abundance
MIC50 (Coprococcus sp): 25 µg/mL (≈ 59.1 µM)
MIC50 (Enterococcus pseudoavium): 100 µg/mL (≈ 236 µM)
MIC50 (Flavonifractor plautii): 25 µg/mL (≈ 59.1 µM)
MIC50 (Longibaculum sp.): 50 µg/mL (≈ 118 µM)
reduction in motility and flagellar genes ([3]; 4-hour treatment with 0.25×MIC): up to 50%
flgB expression decreased versus non-treated control ([3]; CD 630, 0.5×MIC, 4 hours): about 30%
fliA expression attenuated versus non-treated control ([3]; CD 630, 0.5×MIC, 4 hours): about 60%
fliC expression decreased versus non-treated control ([3]; CD 630, 0.5×MIC, 4 hours): about 80%
decrease overall in flagellar gene expression ([3]; CD 630, sub-MIC (0.5×MIC), 4 hours, gluD control): 2-to-5 fold
